Data published in article PMC6697720, “Saturation of acyl chains converts cardiolipin from an antagonist to an activator of Toll-like receptor-4” (Cellular and Molecular Life Sciences: CMLS, 2019).

Columns and labels:
human TLR4/MD2/CD14 = biological target: T1, human TLR4/MD2/CD14 (Homo sapiens, UniProt O00206+Q9Y6Y9); test: Inhibition of LPS-induced NF-κB luciferase reporter in HEK293 cells transfected with human TLR4/MD2/CD14; assay type: cell-based; settings: for inhibition of LPS-induced signaling (LPS dose-response, 0 to 1000 ng/mL), mode of action: 1 h CL pre-incubation
T1 construct: expressed in transfected cells; host or cells: HEK293 (ATCC CRL1573), transient transfection with jetPEI
Description: Cells were seeded at 4 × 10^4 cells/mL in 96-well plates (200 μL/well) and transiently transfected 4 days later. Expression vectors containing an NF-κB transcription reporter vector-encoding firefly luciferase (10 ng/well pNF-κB-luc from Clontech), and a constitutively active reporter vector-encoding Renilla luciferase (5 ng/well phRG-TK; Promega), together with empty vector (pcDNA3.1 from Invitrogen Cat. N. V79020) and cDNA encoding human membrane CD14 (3 ng/well) and human or murine TLR4 and MD2 (3 ng/well) were mixed with jetPEI (Polyplus transfection Cat.N. 101-10N) and incubated with cells according to the manufacturer’s instructions.
After treatment supernatants were discarded, cells were washed with PBS and lysed with passive lysis buffer (Promega Cat.N. E1941). Luciferase and Renilla activity on cell lysates were quantified on a BioTek Synergy HT microplate reader using home-made luciferase reagent (20 mM Tricine, 2.67 mM MgSO4·7H2O, 0.265 mM (MgCO3)4Mg(OH)2·5H2O, 0.1 mM EDTA, 33.3 mM DTT, 530 μM ATP, 270 μM Acetyl Coenzyme A (Lithium salt), 470 μM luciferin (Biosynth), pH 7.8, diluted two times in water before use), or coelenterazine (Biosynth) dissolved in ethanol at 1 mg/mL and diluted 500 times in PBS before use as previously described. Firefly and Renilla luciferase activity on cell lysates were normalized, and data were expressed as fold induction as compared to unstimulated conditions.
In contrast to C16:0 and C18:0, C14:0 CL acted as an agonist in murine but not human cells (Fig. 3), a property similar to that of the LPS variant lipid IVa. to establish whether C14:0, like lipid IVa, is a weak human TLR4 antagonist, we tested the ability of all saturated CLs to inhibit signaling induced by LPS over a range of concentrations. For each CL, cells transfected with human TLR4/MD2/CD14 were pre-incubated with medium alone or two different CL concentrations for 1 h, and then washed and incubated for 6 h with increasing amounts of LPS (from 0 to 1000 ng/mL). […] The dose–response curve of LPS was shifted to the right.
(§1) Fig. 6 C14:0 is a competitive human TLR4 antagonist. HEK293 cells were transfected with plasmids encoding hTLR4, hMD2, and hCD14 together with a luciferase reporter plasmid dependent on NF-κB activation and a constitutively active reporter vector-encoding renilla luciferase. Two days after transfection, cells were incubated for 1 h with medium alone or the indicated amount of CLs, then washed and incubated 6 h with increasing amount of LPS. Luciferase and renilla were then quantified in cell lysate, and normalized and reported here as fold induction as compared to control. Each bar represents the mean ± standard deviation of three biological replicates (n = 3). Graphs are representative of at least three independent experiments
as §1, with “7 Unsaturated cardiolipins are” for “6 C14:0 is a”, “antagonists.” for “antagonist.”, “CLs, and” for “CLs,”
To quantify and compare the potency of CLs as inhibitors, we determined IC50 values in HEK293 cells transfected with human TLR4/MD2/CD14, for each of the antagonists (Fig. 8 and Table 1). […]

RAW-Blue cells = test: NF-κB activation (SEAP, Quanti-Blue) by CL or LPS in RAW-Blue cells; assay type: cell-based, murine; settings: CL alone, overnight
Description: RAW-Blue™ cells were seeded the day before the experiment at 5 × 10^5 cells/mL in 48-well plates (500 μL/well).
These cells express a secreted embryonic alkaline phosphatase (SEAP) when NF-κB is activated. NF-κB activation was measured by measuring the alkaline phosphatase produced by RAW-Blue™ cells using the Quanti-Blue™ reagent (InvivoGen), according to the manufacturer’s instructions.
(§2) Fig. 3 Saturated but not unsaturated CLs have pro-inflammatory properties. a RAW-Blue™ cells were incubated overnight with the indicated amount of CL or LPS, supernatants were collected, and NF-κB activation quantified via Quanti-Blue™ test and reported here as fold induction as compared to control. Unpaired t test: differences with respect to the control (Ctrl) are not significant if p > 0.05 (no symbol); *p ≤ 0.0007. b Immortalized BMDM cells were incubated overnight with the indicated amount of CL or LPS; supernatants were collected and TNF-α quantified via ELISA assay. c, d Primary human monocytes were incubated overnight with the indicated amount of CL or LPS with or without the NLRP3 inhibitor MCC950, supernatants were collected, and TNF-α and IL-1β were quantified via ELISA assay. Graphs are representative of experiments from six different donors. Unpaired t test: differences with respect to the control (Ctrl) are not significant if p > 0.05 (no symbol); *p ≤ 0.021. Each bar represents the mean + standard deviation of three biological replicates (n = 3). Graphs are representative of at least three independent experiments

immortalized BMDMs = test: TNF-α secretion in immortalized BMDMs (WT or TLR4-KO) incubated with CL or LPS; assay type: cell-based, murine; settings: overnight; for TNF-α secretion: CL alone, immortalized BMDM
Description: Immortalized BMDM were seeded the day before the experiment at 5 × 10^5 cells/mL in 48-well plates (500 μL/well).
After stimulation, supernatants were collected, centrifuged, and assayed for cytokine secretion, while cells were assayed for viability.
TNF-α and IP-10 were quantified in cell supernatants using DuoSet ELISA kits from R&D Systems and human IL-1β using Instant ELISA™ Kit from Invitrogen, according to the manufacturer’s instructions. Absorbance was read with a BioTek Synergy HT Microplate Readers.
as §2
Fig. 4 Saturated CLs are TLR4 agonists. a HEK293 cells were transfected with plasmids encoding murine TLR4, MD2, and CD14 (mTLR4), human TLR4, MD2, and CD14 (hTLR4) or with empty pcDNA3.1 plasmid, MD2 and CD14 (w/o TLR) together with a luciferase reporter plasmid dependent on NF-κB activation and a constitutively active reporter vector-encoding renilla luciferase. Two days after transfection, cells were incubated for 6 h with medium alone (Ctrl) or the indicated amount of CLs or LPS. Luciferase and renilla were quantified in cell lysate, normalized and reported here as fold induction as compared to control. Unpaired t test: differences compared to the control are not significant if p > 0.05(no symbol); *p ≤ 0.005. b WT and TLR4-KO iBMDM cells were incubated overnight with medium (c), LPS or C14:0 CL. For each condition, mTNF-α was measured by ELISA assay. Unpaired t test: differences with respect to the control are not significant if p > 0.05(no symbol); *p ≤ 0.0001. Each bar represents the mean + standard deviation of three biological replicates (n = 3). Graphs are representative of at least three independent experiments

T1 sequence (O00206 24-839): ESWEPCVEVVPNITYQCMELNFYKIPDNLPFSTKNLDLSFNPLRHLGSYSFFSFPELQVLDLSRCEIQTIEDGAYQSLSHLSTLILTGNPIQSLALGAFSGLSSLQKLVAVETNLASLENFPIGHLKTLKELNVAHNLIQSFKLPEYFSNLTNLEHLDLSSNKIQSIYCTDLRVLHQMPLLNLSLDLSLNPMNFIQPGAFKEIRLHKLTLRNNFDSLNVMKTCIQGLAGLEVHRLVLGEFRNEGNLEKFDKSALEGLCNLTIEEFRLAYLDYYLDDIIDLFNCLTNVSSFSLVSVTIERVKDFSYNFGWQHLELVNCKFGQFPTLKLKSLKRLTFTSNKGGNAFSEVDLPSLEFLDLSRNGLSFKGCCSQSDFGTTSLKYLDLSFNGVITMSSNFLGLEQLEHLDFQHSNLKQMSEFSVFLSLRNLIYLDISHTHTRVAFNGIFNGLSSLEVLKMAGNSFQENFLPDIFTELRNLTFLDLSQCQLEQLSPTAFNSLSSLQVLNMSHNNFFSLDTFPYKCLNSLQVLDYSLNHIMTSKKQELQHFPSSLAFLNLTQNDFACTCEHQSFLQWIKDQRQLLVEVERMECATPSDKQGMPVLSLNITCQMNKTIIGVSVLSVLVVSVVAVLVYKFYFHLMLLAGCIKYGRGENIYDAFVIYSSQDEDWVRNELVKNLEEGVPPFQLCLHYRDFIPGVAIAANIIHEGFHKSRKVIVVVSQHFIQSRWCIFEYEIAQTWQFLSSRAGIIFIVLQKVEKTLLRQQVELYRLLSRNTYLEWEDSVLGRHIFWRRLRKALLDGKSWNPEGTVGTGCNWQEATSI
T1 sequence (Q9Y6Y9 19-160): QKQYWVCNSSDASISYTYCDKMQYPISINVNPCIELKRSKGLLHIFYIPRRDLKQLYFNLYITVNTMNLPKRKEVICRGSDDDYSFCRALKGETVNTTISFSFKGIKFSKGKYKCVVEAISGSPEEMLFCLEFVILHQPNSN

| SMILES | inhibition of LPS-induced signaling (LPS dose-response, 0 to 1000 ng/mL), mode of action (human TLR4/MD2/CD14; washed, 6 h LPS) | NF-κB activation (RAW-Blue cells) | TNF-α secretion (immortalized BMDMs) | inhibition of LPS-induced signaling (LPS dose-response, 0 to 1000 ng/mL), mode of action (human TLR4/MD2/CD14; washed, 6 h LPS, listed as C14:0) | IC50 (human TLR4/MD2/CD14; HEK293 hTLR4/hMD2/hCD14, 1 h CL, washed, 6 h LPS, Prism fit of Fig. 8 data) [µM] | IC50 (human TLR4/MD2/CD14; approx., HEK293 human TLR4/MD2/CD14) [µM] | TNF-α secretion in WT iBMDMs (immortalized BMDMs; wild-type) |
| --- | --- | --- | --- | --- | --- | --- | --- |
| CCCCCCCCCCCCCCCCCC(=O)OC[C@H](COP(=O)(O)OCC(O)COP(=O)(O)OC[C@@H](COC(=O)CCCCCCCCCCCCCCCCC)OC(=O)CCCCCCCCCCCCCCCCC)OC(=O)CCCCCCCCCCCCCCCCC (stereo partly shown) [C18:0 CL] | did not inhibit | induced | induced |  |  |  |  |
| CCCCCCCCCCCCCC(=O)OC[C@H](COP(=O)(O)OCC(O)COP(=O)(O)OC[C@@H](COC(=O)CCCCCCCCCCCCC)OC(=O)CCCCCCCCCCCCC)OC(=O)CCCCCCCCCCCCC (stereo partly shown) [C14:0 CL] | competitive inhibitor | induced | induced | competitive TLR4 antagonists | ~325 | ~300 | induced |
